What was measured:
Sertoli 42GPA9 cells = assay: Autophagic vacuolation of Sertoli cells (light, electron and confocal microscopy); type: cell-based, mouse; settings: for effect on Lindane-induced vacuolation: pretreatment 90 min before Lindane 50 µM, 3 MA 30 mM, BafA1 100 nM, NPPB 25 µM; for effect on Lindane-preformed vacuoles: added after vacuole formation; for induction of vacuolation / autophagy by the chemical alone: Lindane 50 µM, DDT 1.8 µM, Bϕ 90 µM, PCP 15 µM, SB203580 10 µM, NH4Cl 5 mM
Method: Autophagy was induced either by starvation or by treatment with Lindane under nutrient-rich condition.
(§1) When bafilomycin A1 (BafA1, V-ATPase-specific inhibitor, 100 nM, Sigma); Park Davis Inhibitor PD98059 (MEK1-specific inhibitor, 10 µM, Cell Signaling), H89 (PKA inhibitor, 5 µM, Calbiochem), 3-Methyladenine (3 MA, autophagy-specific inhibitor, 10-30 mM, Sigma) or NPPB [5-nitro-2-(3-phenylpropylamino) benzoic acid, Cl^- channel blocker, 25 µM, Sigma] was used, it was added to the starvation medium for 90 min, prior to Lindane addition or nutrient deprivation.
The ultrastructural changes caused by Lindane or starvation in Sertoli and renal cells were analysed by transmission electron microscopy, as previously described (57). […] Cell pellets were then rinsed in cacodylate buffer, postfixed in 1% OsO4 for 1 h at 4°C, dehydrated through graded ethanol washes, and embedded in epoxy resin. Oriented […] sections were obtained with diamond knives, and representative areas were chosen for ultra-thin sectioning. […] 30-50 micrographs were taken randomly from each sample at primary magnification × 10,000.
Sertoli cells seeded on glass coverslips were transiently transfected with EGFP-Rab7 or MEK1^+-HA expression plasmids using Fugene 6 reagent (Roche), washed and allowed to recover overnight before addition of Lindane (50 µM). […] To determine the pH of the Lindane-induced vacuoles, living cells were stained with acridine-orange (5 µg/ml, Sigma), a membrane-permeable weak base whose fluorescence shifts from green at neutral pH to red in acidic compartments (59). 10 min later, cells were washed and directly observed under a confocal microscope.

CFTR^-/- cells = assay: Starvation-induced autophagic death of CFTR-/- renal cells; type: cell-based, mouse; settings: nutrient-free medium
Method: (§2) For nutrient deprivation, cells were washed with DMEM and first starved in minimal medium lacking serum for 90 min. Cells were then washed again with PBS and deprived for up to 16 h in nutrient-free medium lacking amino acids, vitamins, and serum (HBSS, 0.1% BSA, 20 mM HEPES, Sigma #H8264). As controls, cells were incubated in this nutrient-free medium supplemented with a mixture of non essential amino acids (0.1 mM, GIBCO, #11140-035).

p42^ERK2 and p44^ERK1 = assay: ERK activation by anti-phospho-ERK Western blotting of cell lysates; type: cell-based, mouse; settings: for ERK activation in Sertoli cells: Lindane 50 µM, DDT 1.8 µM, Bϕ 90 µM, PCP 15 µM; for effect on Lindane-induced ERK activation: pretreatment, PD98059 10 µM, NPPB 25 µM, 90 min
Source text: (§3) After stripping, equal loadings of proteins were verified by reprobing the blots with anti-ERK1 (Santa Cruz Biotechnology).

Sertoli cell = settings: reported, ref (84); cited from earlier work
PKA = assay: CREB phosphorylation as readout of PKA activity; type: cell-based; settings: H89
Source text: The emerging issue is therefore how Lindane could activate CFTR Cl^- currents. One possibility would be that Lindane directly activates CFTR, but this appears unlikely because it required minutes instead of seconds to increase Cl^- conductance. […] To further explore this hypothesis, we tested the effect of Lindane on the renal proximal cell line (PCT1). […] Of particular interest, we provide several lines of evidence that the CFTR Δex10 channels remained functional in response to Lindane in PCT cells. […] These finding provide the first evidence that an agonist, e.g. Lindane, could activate CFTR Cl- current independently of PKA, raising the promise for new strategies using Lindane to restore Cl-conductance in cystic fibrosis patients with CFTR variants on PKA sites.

CFTR Cl^- channels = CFTR Cl^- channels (Homo sapiens, UniProt P13569); settings: NPPB 0.1 mM, glibenclamide 0.1 mM, external DIDS 1 mM; review (41); cited from earlier work
Sequence of CFTR Cl^- channels (P13569 whole entry): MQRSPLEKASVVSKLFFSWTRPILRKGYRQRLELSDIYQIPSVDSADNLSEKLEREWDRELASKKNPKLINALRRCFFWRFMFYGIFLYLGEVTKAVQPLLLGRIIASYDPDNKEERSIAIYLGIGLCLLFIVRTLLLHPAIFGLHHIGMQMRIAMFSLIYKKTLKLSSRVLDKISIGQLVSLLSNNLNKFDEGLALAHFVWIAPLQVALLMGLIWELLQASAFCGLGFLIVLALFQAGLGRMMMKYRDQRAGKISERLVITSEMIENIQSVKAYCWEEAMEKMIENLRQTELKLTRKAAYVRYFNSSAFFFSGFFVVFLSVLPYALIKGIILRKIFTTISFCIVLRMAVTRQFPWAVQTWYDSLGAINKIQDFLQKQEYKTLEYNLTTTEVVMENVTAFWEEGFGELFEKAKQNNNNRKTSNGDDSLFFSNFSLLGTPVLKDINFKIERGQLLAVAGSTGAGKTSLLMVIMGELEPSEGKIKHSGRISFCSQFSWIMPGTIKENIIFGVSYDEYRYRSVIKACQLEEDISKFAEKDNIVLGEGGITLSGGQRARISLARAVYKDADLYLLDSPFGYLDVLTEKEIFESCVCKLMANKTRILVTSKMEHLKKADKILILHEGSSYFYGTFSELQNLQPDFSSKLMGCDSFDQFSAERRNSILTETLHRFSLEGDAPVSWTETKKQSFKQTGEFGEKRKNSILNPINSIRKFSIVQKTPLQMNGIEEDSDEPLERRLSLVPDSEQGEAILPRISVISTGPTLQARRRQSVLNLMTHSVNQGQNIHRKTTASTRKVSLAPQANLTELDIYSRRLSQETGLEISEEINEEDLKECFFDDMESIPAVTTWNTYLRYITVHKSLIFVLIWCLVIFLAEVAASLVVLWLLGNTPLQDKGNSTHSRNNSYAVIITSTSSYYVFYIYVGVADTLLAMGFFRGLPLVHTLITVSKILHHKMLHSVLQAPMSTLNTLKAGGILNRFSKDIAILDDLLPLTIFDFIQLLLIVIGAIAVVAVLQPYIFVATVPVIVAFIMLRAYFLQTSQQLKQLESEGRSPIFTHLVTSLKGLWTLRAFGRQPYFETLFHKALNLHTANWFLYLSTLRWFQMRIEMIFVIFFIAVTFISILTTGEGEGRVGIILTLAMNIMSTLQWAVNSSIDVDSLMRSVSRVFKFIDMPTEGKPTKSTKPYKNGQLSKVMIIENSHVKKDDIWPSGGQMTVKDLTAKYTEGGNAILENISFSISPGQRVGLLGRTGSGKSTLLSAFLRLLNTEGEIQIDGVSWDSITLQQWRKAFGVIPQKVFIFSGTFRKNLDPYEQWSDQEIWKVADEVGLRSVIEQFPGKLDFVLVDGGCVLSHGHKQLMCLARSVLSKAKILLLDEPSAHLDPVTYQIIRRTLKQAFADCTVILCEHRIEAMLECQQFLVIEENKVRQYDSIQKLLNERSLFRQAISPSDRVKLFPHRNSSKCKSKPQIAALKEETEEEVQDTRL

CFTR^+/+ cells = assay: Starvation-induced autophagic death of CFTR+/+ renal cells; type: cell-based, mouse; settings: 16 hours nutrient deprivation
Method: as §2, §1

CFTR Cl^- channel = CFTR Cl^- channel (Mus musculus, UniProt P26361); assay: Whole-cell patch-clamp Cl- currents in Sertoli cells; type: cell-based; design: endogenous in cells; host or cells: Sertoli 42GPA9 cell line (mouse)
Sequence of CFTR Cl^- channel (P26361 whole entry): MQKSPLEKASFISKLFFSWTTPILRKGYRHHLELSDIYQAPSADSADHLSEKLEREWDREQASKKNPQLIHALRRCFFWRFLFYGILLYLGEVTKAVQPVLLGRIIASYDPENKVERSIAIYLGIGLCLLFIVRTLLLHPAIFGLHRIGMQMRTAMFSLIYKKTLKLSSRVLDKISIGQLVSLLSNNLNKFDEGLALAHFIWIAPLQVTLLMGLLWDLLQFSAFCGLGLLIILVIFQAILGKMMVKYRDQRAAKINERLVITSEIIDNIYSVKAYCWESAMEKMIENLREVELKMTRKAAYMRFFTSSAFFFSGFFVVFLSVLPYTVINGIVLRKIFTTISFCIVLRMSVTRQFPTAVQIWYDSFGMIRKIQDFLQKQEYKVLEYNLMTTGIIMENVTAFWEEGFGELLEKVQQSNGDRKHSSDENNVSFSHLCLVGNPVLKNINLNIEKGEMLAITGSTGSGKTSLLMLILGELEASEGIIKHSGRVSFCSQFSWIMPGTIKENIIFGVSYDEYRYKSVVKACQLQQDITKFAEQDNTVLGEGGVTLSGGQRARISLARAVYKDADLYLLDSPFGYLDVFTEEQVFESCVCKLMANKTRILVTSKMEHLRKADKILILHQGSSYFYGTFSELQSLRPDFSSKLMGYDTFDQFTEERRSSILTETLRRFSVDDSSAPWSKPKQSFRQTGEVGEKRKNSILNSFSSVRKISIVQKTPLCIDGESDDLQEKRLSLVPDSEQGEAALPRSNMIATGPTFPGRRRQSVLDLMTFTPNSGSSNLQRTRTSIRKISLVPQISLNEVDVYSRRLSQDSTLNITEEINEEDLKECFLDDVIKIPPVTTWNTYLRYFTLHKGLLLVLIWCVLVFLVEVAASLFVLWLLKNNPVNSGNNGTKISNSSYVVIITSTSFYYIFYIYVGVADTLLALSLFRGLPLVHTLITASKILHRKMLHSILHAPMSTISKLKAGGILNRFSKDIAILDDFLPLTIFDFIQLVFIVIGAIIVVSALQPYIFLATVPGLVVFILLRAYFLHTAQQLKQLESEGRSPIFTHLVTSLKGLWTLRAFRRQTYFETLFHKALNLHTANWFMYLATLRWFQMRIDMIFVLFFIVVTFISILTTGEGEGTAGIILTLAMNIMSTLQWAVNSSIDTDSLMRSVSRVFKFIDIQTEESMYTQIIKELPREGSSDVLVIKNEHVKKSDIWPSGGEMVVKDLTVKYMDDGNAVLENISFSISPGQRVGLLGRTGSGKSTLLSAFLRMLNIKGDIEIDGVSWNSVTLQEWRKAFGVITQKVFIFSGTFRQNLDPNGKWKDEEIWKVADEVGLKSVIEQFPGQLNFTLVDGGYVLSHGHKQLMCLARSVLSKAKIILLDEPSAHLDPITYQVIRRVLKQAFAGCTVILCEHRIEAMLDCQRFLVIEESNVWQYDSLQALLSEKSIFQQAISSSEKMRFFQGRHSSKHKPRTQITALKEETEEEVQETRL
Method: Whole cell currents were monitored from Sertoli cells, CFTR^-/- and WT renal epithelial cells with an RK 400 amplifier (Biologic, Münster, Germany) as previously described (40). The bath (extracellular) solution consisted of 140 mM NMDGCl (N-methyl-D-glucamine chloride), 5 mM D-Glucose, 1 mM CaCl2, and 10 mM HEPES, pH 7.4. Patch pipette (intracellular) solution contained 140 mM NMDGCl, 5 mM D-Glucose, 5 mM EGTA, 5 mM MgATP, and 10 mM HEPES, pH 7.4. Osmolarity of both solutions was adjusted to 280 mOSM by adding mannitol. These solutions were designed to study Cl^- currents because Cl^- is the sole permeant ion in these conditions and to prevent Ca^2+ activated Cl^- currents by the addition of EGTA in the patch solution. After establishment of whole cell configuration, cells were stimulated by the addition of Lindane (50 µM), FSK (10 µM), vehicle (Me2S0 or ethanol) in the absence or the presence of NPPB (0.1mM), DIDS (4,4'-diisothiocyanatostilbene-2,2'-disulfonic acid, 1 mM, Sigma), glibenclamide (0.1mM, Sigma) or PD98059 (10 µM) in the bath solution. The cell membrane potential was clamped at -50mV and 400 ms pulses were applied from -100 to +120 mV with increments of 20 mV every 2 s. To generate whole cell current-voltage (I-V) relationship, membrane currents resulting from voltage stimuli were recorded for at least 3 min and analysed using an IBM-AT-compatible computer equipped with Digidata 1200 interface (Axon Instruments) and pCLAMP software (versions 5.51 and 6.0, Axon Instruments), respectively. Statistics-Results are expressed as mean ± S.E. of n observations using the Student's t test.

p38 = p38 / Jun kinase activation by Western blotting of Sertoli cell lysates; type: cell-based, mouse; settings: Sertoli cell lysates treated for 15 min
Source text: as §3

Compound: Cn1cnc(N)c2ncnc1-2 [3 MA, 3-Methyladenine]
- effect on Lindane-induced vacuolation (Sertoli 42GPA9 cells; 24 h, PD98059 10 µM): dramatically reduced
- effect on starvation-induced death of CFTR^-/- cells (CFTR^-/- cells): arrested starvation-induced cell death

Compound: CO/C1=C\C(C)=C\[C@@H](C)[C@@H](O)[C@@H](C)C/C(C)=C/C=C/[C@H](OC)[C@@H]([C@@H](C)[C@@H](O)[C@H](C)[C@@]2(O)C[C@@H](O)[C@H](C)[C@@H](C(C)C)O2)OC1=O [BafA1, bafilomycin A1]
- effect on Lindane-preformed vacuoles (Sertoli 42GPA9 cells): collapsed Lindane-preformed vacuoles
- effect on Lindane-induced vacuolation (Sertoli 42GPA9 cells; 24 h, PD98059 10 µM): prevented their formation

Compound: Clc1ccc(C(c2ccc(Cl)cc2)C(Cl)(Cl)Cl)cc1 [DDT]
- induction of vacuolation / autophagy by the chemical alone (Sertoli 42GPA9 cells; 24 h): induced vacuolation
- ERK activation in Sertoli cells (p42^ERK2 and p44^ERK1): induced the activation of both p42^ERK2 and p44^ERK1
- Sertoli cell vacuolation in vivo (Sertoli cell): reported to promote Sertoli cell vacuolation

Compound: O=S(=O)(NCCNCC=Cc1ccc(Br)cc1)c1cccc2cnccc12 [H89]
- effect on Lindane-induced CREB phosphorylation (PKA): failed to counteract Lindane-induced CREB phosphorylation

Compound: Cl.N [NH4Cl]
- induction of vacuolation / autophagy by the chemical alone (Sertoli 42GPA9 cells; 24 h): did not alter cell morphology
- effect on toxicant-induced vacuole development (Sertoli 42GPA9 cells; NH4Cl 5 mM added to medium): accelerated toxicant-induced vacuole development

Compound: O=C(O)c1cc([N+](=O)[O-])ccc1NCCCc1ccccc1 [NPPB, 5-nitro-2-(3-phenylpropylamino) benzoic acid]
- effect on Lindane-preformed vacuoles (Sertoli 42GPA9 cells): collapsed Lindane-preformed vacuoles
- effect on Lindane-induced vacuolation (Sertoli 42GPA9 cells; 24 h, PD98059 10 µM): abrogated Lindane-induced vacuolation
- effect on Lindane-induced ERK activation (p42^ERK2 and p44^ERK1): still stimulated
- sensitivity of CFTR Cl^- channels to blocker (CFTR Cl^- channels): sensitive
- outcome of CFTR^+/+ cells under nutrient deprivation in the presence of inhibitor (CFTR^+/+ cells): cell death

Compound: COc1cccc(-c2cc(=O)c3ccccc3o2)c1N [PD98059]
- ultrastructure in the presence of inhibitor plus Lindane (Sertoli 42GPA9 cells; PD98059 10 µM + Lindane, electron microscopy): dramatic accumulation of lamellar structures
- effect on chloroquine-induced vacuolation (Sertoli 42GPA9 cells; chloroquine 500 µM, 24 h, PD98059 10 µM): did not affect chloroquine-induced vacuolation
- effect on Lindane-induced vacuolation (Sertoli 42GPA9 cells; 24 h, PD98059 10 µM): abrogated Lindane-induced vacuolation
- effect on Lindane-induced ERK activation (p42^ERK2 and p44^ERK1): drastically reduced the ability of Lindane to activate ERK
- effect on Lindane-induced CFTR Cl- conductance (CFTR Cl^- channel; PD98059 10 µM + Lindane): dramatically reduced
- whole-cell I-V relationship with inhibitor alone (CFTR Cl^- channel; PD98059 alone): identical to control I-V
- outcome of CFTR^+/+ cells under nutrient deprivation in the presence of inhibitor (CFTR^+/+ cells): cell death

Compound: Oc1c(Cl)c(Cl)c(Cl)c(Cl)c1Cl [Pentachlorophenol]
- induction of vacuolation / autophagy by the chemical alone (Sertoli 42GPA9 cells; 24 h): no vacuolation was observed
- ERK activation in Sertoli cells (p42^ERK2 and p44^ERK1): strong activator of ERK1/2
- Sertoli cell vacuolation in vivo (Sertoli cell): does not
- p38 activation (p38): concomitantly activated p38

Compound: COc1ccc(Cl)cc1C(=O)NCCc1ccc(S(=O)(=O)NC(=O)NC2CCCCC2)cc1 [glibenclamide]
- sensitivity of CFTR Cl^- channels to blocker (CFTR Cl^- channels): sensitive

Compound: biphenol A
- induction of vacuolation / autophagy by the chemical alone (Sertoli 42GPA9 cells; 24 h): induced vacuolation
- ERK activation in Sertoli cells (p42^ERK2 and p44^ERK1): induced the activation of both p42^ERK2 and p44^ERK1
